{"source": "patent US8143236B2", "about": "“Chemoprotective methods” (BioNumerik Pharmaceuticals, Inc., priority 2006, dated 2012)", "key": {"[1]": {"assay": "Randomized double-blind placebo-controlled clinical study with paclitaxel: hypersensitivity Adverse Events by infusion time and concentration (FIG. 1)", "type": "in vivo, human", "conditions": "for proportion of patients with at least one hypersensitivity Adverse Event: entire treated population: paclitaxel plus either placebo or drug (1:1)", "protocol": "FIG. 1 illustrates a comparison of the number of hypersensitivity Adverse Events between groups of patients in whom 2,2′-dithio-bis-ethane sulfonate or a placebo was infused over (1) 30 minutes, (2) 30 and 45 minutes, or (3) 45 minutes. The chemotherapeutic agent administered was paclitaxel. In this Figure, n=#, equals the number of patients.\nNew methods of administration of agents such as 2,2′-dithio-bis-ethane sulfonate, pharmaceutically-acceptable salts, and/or an analog thereof, have now been discovered in connection with a human clinical study comprising a randomized, double-blind, placebo-controlled study with a 1:1 randomization. Initial blinded study results support the ability of compounds such as 2,2′-dithio-bis-ethane sulfonate to markedly enhance overall safety, decrease overall Adverse Events, decrease hypersensitivity-based Adverse Events, and increase the time of Adverse Event onset, while maintaining at least the same therapeutic indices (e.g. dose level administered in a prescribed specific time schedule, including duration of administration and frequency), and reduction, prevention, mitigation, and/or delay of toxicities associated with the administration of chemotherapeutic agents.\nThis reduction in the proportion of patients experiencing hypersensitivity reactions overall represents a medically significant difference in such adverse reactions. It represents a reduction in the risk of an observed potentially serious and life-threatening Adverse Event by approximately 29% in the entire study population (i.e., both placebo and 2,2′-dithio-bis-ethane sulfonate populations).\nFIG. 1 illustrates a comparison of the number of hypersensitivity Adverse Events between groups of patients in whom 2,2′-dithio-bis-ethane sulfonate or a placebo was infused over (1) 30 minutes, (2) 30 minutes and 45 minutes, or (3) 45 minutes. In addition, the total number of hypersensitivity Adverse Events, the mean time to the first hypersensitivity Adverse Event, and a variety of the types of hypersensitivity Adverse Events were also shown. […] This reduction in the proportion of patients experiencing hypersensitivity Adverse Events overall represents a reduction in the risk of an observed potentially serious and life-threatening Adverse Event by approximately 29% in the entire study population (i.e., both placebo and disodium 2,2′-dithio-bis-ethane sulfonate populations)."}, "[2]": {"system": "paclitaxel-induced thermoparesthesia", "assay": "Paclitaxel-induced thermoparesthesia model", "type": "in vivo, rats"}, "[3]": {"system": "paclitaxel-induced decreases in NCV", "assay": "Paclitaxel-induced decrease in nerve conduction velocity (NCV)", "type": "in vivo", "conditions": "rats; paclitaxel 6 mg/kg i.v. 5 times every other day; 1,000 mg/kg i.v. immediately after paclitaxel"}, "[4]": {"system": "sciatic and tibial nerves", "assay": "Histopathological abnormalities of sciatic and tibial nerves caused by paclitaxel", "type": "in vivo", "conditions": "paclitaxel 30 mg/kg i.v. every other day (3 doses); 2,000 mg/kg i.v. immediately after paclitaxel"}, "[5]": {"system": "decreases in NCV by cisplatin", "assay": "Cisplatin-induced decrease in nerve conduction velocity (NCV)", "type": "in vivo", "conditions": "rats, cisplatin 2 mg/kg i.p. twice a week for 6 weeks, 1,000 mg/kg i.v. immediately before cisplatin", "protocol": "Effects of the Formula (I) compound, Tavocept™ (dimesna; disodium 2,2′-dithio-bis-ethane sulfonate), on decreases in nerve conduction velocity (NCV) induced by cisplatin (2 mg/kg) administered by i.p. injection twice a week for 6 consecutive weeks were evaluated in rats."}, "[6]": {"assay": "Japan Phase III Clinical Trial, NSCLC patients receiving paclitaxel and cisplatin", "type": "in vivo, human", "protocol": "(§1) The Japan Phase III Clinical Trial was conducted as a double-blind study because peripheral neuropathy is diagnosed based on subjective symptoms evaluated through clinical interviews, lab tests, and the like. Accordingly, evaluations by both physicians and patients are highly important. […] A placebo was used as control since there is no established therapy or drug for preventing peripheral neuropathy. Because the severity of peripheral neuropathy is evaluated based on patients' reports (i.e., subjective symptoms), the Patient Neurotoxicity Questionnaire (PNQ©) (also known as the Peripheral Neuropathy Questionnaire) was used in primary evaluation. The CIPN-20 questionnaire and the National Cancer Institute-Common Toxicity Criteria (NCI-CTC) were used in secondary evaluation. The incidence and severity of adverse reactions, time to their onset, etc. and the like, were compared between patients treated with Tavocept™ and those given a placebo using the aforementioned methods.\n(§2) The Primary Endpoint of the Japan Phase III Clinical Trial described in the present invention was specifically designed to test the hypothesis of whether chemotherapy-induced intermittent peripheral neuropathy would occur. The utilization of physical examination, laboratory tests, and highly detailed patient evaluation, especially utilizing the Patient Neurotoxicity Questionnaire (PNQ©), also known as the Peripheral Neuropathy Questionnaire, was responsible for the identification and characterization of this novel intermittent form of chemotherapy-induced peripheral neuropathy. The results illustrated in FIG. 3 indicate that intermittent peripheral neuropathy was specifically identified and measured in the Japan Phase III Clinical Trial. […] Additionally, the results illustrated in FIG. 4 and FIG. 5 also support the finding that the Formula (I) compound, Tavocept™, can mitigate and/or prevent intermittent peripheral neuropathy. FIG. 4 provides data supporting the merit of utilizing the Patient Neurotoxicity Questionnaire (PNQ©), also known as the Peripheral Neuropathy Questionnaire, and the Generalized Estimating Equation (GEE) statistical method to evaluate intermittent and cumulative peripheral neuropathy."}, "[7]": {"system": "chemotherapy-induced peripheral neuropathy", "assay": "Japan Phase III Clinical Trial, NSCLC patients receiving paclitaxel and cisplatin", "type": "in vivo, human", "conditions": "NSCLC; paclitaxel/Tavocept/cisplatin vs paclitaxel/saline placebo/cisplatin", "protocol": "as §1, §2"}, "tubulin": {"system": "tubulin", "conditions": "in vitro; paclitaxel 6 μM; cited from earlier work"}, "[8]": {"conditions": "after intravenous administration; intracellular glutathione as a cofactor; cited from earlier work"}, "[9]": {"conditions": "in vivo; cited from earlier work"}}, "data": [{"smiles": "O=S(=O)([O-])CCSSCCS(=O)(=O)[O-].[Na+].[Na+]", "note": "[Tavocept™, disodium 2,2′-dithio-bis-ethane sulfonate]", "values": [{"measurement": "proportion of patients with at least one hypersensitivity Adverse Event", "setting": "[1]; 100 mg/mL over 45 minutes", "result": "approximately 30%"}, {"measurement": "proportion of patients with at least one hypersensitivity Adverse Event", "setting": "[1]; 200 mg/mL over 30 minutes", "result": "approximately 42%"}, {"measurement": "reduction in the overall proportion of patients experiencing hypersensitivity reactions", "setting": "[1]; 45 min 100 mg/mL vs 30 min 200 mg/mL, absolute difference", "result": "approximately 12%"}, {"measurement": "reduction in hypersensitivity Adverse Events in the drug treatment population", "setting": "[1]; 45 min 100 mg/mL vs 30 min 200 mg/mL, assumes no placebo effect", "result": "≤ 57", "unit": "%"}, {"measurement": "reduction in the risk of hypersensitivity Adverse Event in the entire study population", "setting": "[1]; 45 min 100 mg/mL vs 30 min 200 mg/mL, placebo and drug populations together", "result": "approximately 29%"}, {"measurement": "inhibition rates of thermoparesthesia caused by paclitaxel", "setting": "[2]; paclitaxel 12 mg/kg i.p. once a week for 5 weeks, 2,000 mg/kg i.v. immediately after paclitaxel", "result": "19.2-34.1%"}, {"measurement": "maximum inhibition rate of paclitaxel-induced thermoparesthesia", "setting": "[2]; rats, paclitaxel 6 mg/kg i.v. 5 times every other day, 1,000 mg/kg", "result": 41.7, "unit": "%"}, {"measurement": "inhibition of paclitaxel-induced thermoparesthesia", "setting": "[2]; rats, paclitaxel 6 mg/kg i.v. 5 times every other day, 1,000 mg/kg i.v. immediately after paclitaxel", "result": "27.5-59.2%"}, {"measurement": "maximum inhibition rate of paclitaxel-induced thermoparesthesia", "setting": "[2]; rats, paclitaxel 6 mg/kg i.v. 5 times every other day, 2,000 mg/kg", "result": 41.5, "unit": "%"}, {"measurement": "inhibition of paclitaxel-induced decreases in NCV", "setting": "[3]", "result": 92.2, "unit": "%"}, {"measurement": "increases in the incidence of histopathological abnormalities of the sciatic and tibial nerves", "setting": "[4]", "result": "inhibited"}, {"measurement": "inhibition rate of decreases in NCV by cisplatin", "setting": "[5]; 5 weeks after starting cisplatin", "result": 53.6, "unit": "%"}, {"measurement": "inhibition rate of decreases in NCV by cisplatin", "setting": "[5]; 6 weeks after starting cisplatin", "result": 64.7, "unit": "%"}, {"measurement": "survival of patients with NSCLC", "setting": "[6]; Tavocept and chemotherapy", "result": "medically important increase in survival"}, {"measurement": "survival time of patients with adenocarcinoma", "setting": "[6]; Tavocept and chemotherapy", "result": "medically important increase in survival time"}, {"measurement": "chemotherapy-induced anemia, nausea/vomiting, fatigue, and kidney damage", "setting": "[6]; clinical trial population", "result": "medically important reductions"}, {"measurement": "hematological function (hemoglobin, hematocrit, erythrocyte levels)", "setting": "[6]; patients with non-small cell lung carcinoma and adenocarcinoma", "result": "maintenance or stimulation of hematological function"}, {"measurement": "reduction in severe (Grade D or E) intermittent or cumulative peripheral neuropathy (FIG. 5)", "setting": "[7]", "result": "~50", "unit": "%"}, {"measurement": "concentration at which tubulin polymerization induced by paclitaxel is inhibited", "setting": "tubulin", "result": 6, "unit": "mM"}, {"measurement": "uptake and metabolism", "setting": "[8]", "result": "rapidly taken up in the kidney and metabolized into mesna"}]}, {"smiles": "N.N.[Cl][Pt][Cl]", "note": "[cisplatin]", "values": [{"measurement": "cumulative dose above which cisplatin-induced neuropathy usually occurs", "setting": "[9]", "result": "exceeds 300 mg/m^2"}]}]}
